# Test results as given in US20150322033A1, “ANTIBACTERIAL AGENT” (priority 2012, published 2015).
# Where two headings read alike, the source gives them in different places.
# Experiments:
# S. aureus Mu50 = experiment: microbe, parasite or virus in culture; format: cell-based, Staphylococcus aureus; conditions: for MIC ratio: (MIC value for S. aureus FDA209P)/(MIC value for S. aureus Mu50); for MIC: Staphylococcus aureus; for MIC (mg/L) Mu50: Example 1, Tables 1 to 10
# Procedure: (§1) S. aureus Mu50 (refer to Hiramatsu, K., Hanaki H., et al., J. Antimicrob. Chemother., 1997, 40(1), 135-6) or S. aureus FDA209P (ATCC 6538P) was cultured overnight at 37° C. in 4 mL of TBS (Tryptical Soy Broth, produced by Becton Dickinson) with shaking. After completion of the culture, the cells were suspended in fresh TBS to prepare a cell suspension showing an absorbance of 0.3 at 578 nm. Then, the cell suspension was diluted 500 times with CAMHB mentioned above.
# (§2) CAMHB containing each test compound at each of the aforementioned concentrations was added to each well of a 96-well plate in a volume of 50 μL/well, the aforementioned cell suspension diluted 500 time was added to the well in a volume of 50 μL/well, and stationary culture was carried out overnight at 37° C.
# (§3) MIC values (mg/L) of the flavones and quinolones against the strains were measured in the same manner as that of the measurement of MIC of Example 1, except that CAMHB containing each of the aforementioned flavones and quinolones prepared in Example 2 was used instead of CAMHB containing each of the test compounds.
# (§4) MIC values of the flavones and quinolone for the strains were measured in the same manners as those of Example 1, except that S. aureus Mu50 NR-1 was also used as Staphylococcus aureus in addition to S. aureus FDA209P and S. aureus Mu50, cell suspensions of the strains were prepared.
# (§5) In the same manner as that of Example 1, MIC values of M-246, M-21, J-Q21, and J-Q12.1 for Staphylococcus aureus were measured. M-246 and M-21 were obtained as commercial products, and as J-Q21 and J-Q12.1, those synthesized in Examples 6 and 7 were used.
# [1] = system: S. aureus FDA209P (ATCC 6538P); experiment: microbe, parasite or virus in culture; format: cell-based, Staphylococcus aureus; conditions: for MIC: Staphylococcus aureus
# Procedure: as §1, §2, §3, §4, §5
# S. aureus Mu50 NR1-1 = experiment: MIC by broth microdilution, S. aureus Mu50 NR1-1; format: cell-based; conditions: Staphylococcus aureus, MU50NR11; Example 3, Table 13; read-out: MIC (mg/L) Mu50 NR1-1 (S80F, w)
# Procedure: as §4
# S. aureus Mu50 NR1-1 mentioned in Table 13 is a strain selected stepwise from the clinically isolated S. aureus Mu50 strain with deoxynybomycin, and it has a topoisomerase IV encoded by parC in which a […] (see, Hiramatsu K. et al., J. Antimicrob. Agents, 2012, June; 39 (6), 478-85).
# In Table 13, the descriptions in the parentheses after the strains indicate the mutated amino acid residue and its position, as represented by (the mutation of topoisomerase IV resulting from the mutation of parCand the mutation of DNA gyrase resulting from the mutation of gyrA). The character “w” means wild-type, representing without mutation.
# [2] = MU50, read-out: MIC (mg/L) Mu50, Example 1, Tables 1 to 10
# [3] = MU50, read-out: MIC (mg/L) S. aureus Mu50, Example 2, Table 12
# [4] = Example 1, Tables 1 to 10, read-out: MIC (mg/L) FDA209P
# [5] = Example 2, Table 12, read-out: MIC (mg/L) S. aureus FDA209P
# [6] = Example 3, Table 13, read-out: MIC (mg/L) FDA209P (w, w)
# 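For MIC ratio in this document: ratio is FDA209P MIC divided by Mu50 MIC.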
Structure (SMILES),MIC (S. aureus Mu50; [2]) [mg/L],"MIC [1, 4] [mg/L]",also measured
"O.O=c1c(O)c(-c2ccc(O)c(O)c2)oc2cc(O)cc(O)c12 [No. 1, 3,3′,4′,5,7-Pentahydroxyflavone Hydrate]",≤ 32,64,"MIC ratio (S. aureus Mu50): 2; MIC (S. aureus Mu50; [3]): 32 mg/L; MIC [1, 5]: 64 mg/L; MIC [1, 6]: 64 mg/L; MIC (S. aureus Mu50 NR1-1): 64 mg/L"
"O.O=c1c(O)c(-c2ccc(O)cc2)oc2cc(O)cc(O)c12 [No. 4, 3,4′,5,7-Tetrahydroxyflavone Hydrate]",8,16,"MIC ratio (S. aureus Mu50): 2; MIC (S. aureus Mu50; [3]): 8 mg/L; MIC [1, 5]: 16 mg/L; MIC [1, 6]: 16 mg/L; MIC (S. aureus Mu50 NR1-1): 16 mg/L"
"O=c1cc(-c2ccc(O)c(O)c2)oc2cc(O)cc(O)c12 [No. 6, 3′,4′,5,7-Tetrahydroxyflavone]",,32,"MIC ratio (S. aureus Mu50): 4; MIC (S. aureus Mu50; [3]): 8 mg/L; MIC [1, 5]: 32 mg/L; MIC [1, 6]: 32 mg/L; MIC (S. aureus Mu50 NR1-1): 32 mg/L"
"COc1ccc2c(=O)cc(-c3ccccc3)oc2c1 [No. 15, 7-Methoxyflavone]",32,128,"MIC ratio (S. aureus Mu50): 4; MIC (S. aureus Mu50; [3]): 32 mg/L; MIC [1, 5]: 128 mg/L; MIC [1, 6]: 128 mg/L; MIC (S. aureus Mu50 NR1-1): 128 mg/L"
"COc1cc(O)c2c(=O)c(OC)c(-c3cc(O)c(OC)c(OC)c3)oc2c1 [No. 24, 5-hydroxy-2-(3-hydroxy-4,5-dimethoxyphenyl)-3,7-dimethoxychromen-4-one]",8,128,"MIC ratio (S. aureus Mu50): 16; MIC (S. aureus Mu50; [3]): 8 mg/L; MIC [1, 5]: 128 mg/L; MIC [1, 6]: 128 mg/L; MIC (S. aureus Mu50 NR1-1): 128 mg/L"
"COc1cc(-c2oc3c(OC)c(O)cc(O)c3c(=O)c2O)ccc1O [No. 38, 3,5,7-trihydroxy-2-(4-hydroxy-3-methoxyphenyl)-8-methoxychromen-4-one]",32,128,"MIC ratio (S. aureus Mu50): 4; MIC (S. aureus Mu50; [3]): 32 mg/L; MIC [1, 5]: 128 mg/L; MIC [1, 6]: 128 mg/L; MIC (S. aureus Mu50 NR1-1): 64 mg/L"
"COc1cc(O)c2c(=O)c(OC)c(-c3ccc(O)c(OC)c3)oc2c1 [No. 66, 5-hydroxy-2-(4-hydroxy-3-methoxyphenyl)-3,7-dimethoxychromen-4-one]",32,128,"MIC ratio (S. aureus Mu50): 4; MIC (S. aureus Mu50; [3]): 32 mg/L; MIC [1, 5]: 128 mg/L; MIC [1, 6]: 128 mg/L; MIC (S. aureus Mu50 NR1-1): 128 mg/L"
"COc1ccc2c(=O)cc(-c3ccc(O)cc3)oc2c1 [No. 69, 2-(4-hydroxyphenyl)-7-methoxychromen-4-one]",16,> 128,"MIC ratio (S. aureus Mu50): 16; MIC (S. aureus Mu50; [3]): 8 mg/L; MIC [1, 5]: 128 mg/L; MIC [1, 6]: > 128 mg/L; MIC (S. aureus Mu50 NR1-1): > 128 mg/L"
COc1ccc(-c2c(C(=O)O)oc3cc(OC)cc(OC)c3c2=O)cc1 [compound 92],> 128,> 128,
COc1cc(-c2coc3cc(O)c(OC)c(O)c3c2=O)cc(O)c1OC [compound 93],128,128,
COc1ccc(-c2coc3cc(O)c(OC)c(O)c3c2=O)cc1 [compound 94],128,128,
O=C(O)C1OC(Oc2ccc(-c3coc4cc(O)cc(O)c4c3=O)cc2)C(O)C(O)C1O (stereo not shown) [compound 95],,,"MIC (mg/L) Mu50 (S. aureus Mu50): >128 mg/L; MIC (mg/L) FDA209P ([1]; Example 1, Tables 1 to 10): 128 mg/L"
COc1cc(OC2OC(CO)C(O)C(O)C2O)c2c(=O)c(-c3ccc(O)cc3)coc2c1 (stereo not shown) [compound 96],,,"MIC (mg/L) Mu50 (S. aureus Mu50): 128 mg/L; MIC (mg/L) FDA209P ([1]; Example 1, Tables 1 to 10): 128 mg/L"
COc1c2c(cc3occ(-c4ccc(O)cc4)c(=O)c13)OCO2 [compound 97],,,"MIC (mg/L) Mu50 (S. aureus Mu50): 128 mg/L; MIC (mg/L) FDA209P ([1]; Example 1, Tables 1 to 10): 128 mg/L"
COc1cc(OC)c(-c2coc3cc(O)cc(O)c3c2=O)cc1OC [compound 98],> 128,128,
COc1c(O)cc2occ(-c3ccc(O)cc3)c(=O)c2c1O [compound 100],128,128,
O=c1c(-c2ccc(O)cc2O)coc2cc(O)cc(O)c12 [compound 101],128,128,
O=C(O)COc1cc(O)c2c(=O)c(-c3ccc4c(c3)OCCO4)coc2c1 [compound 102],128,128,
CC(=O)Oc1cc(OC(C)=O)c2c(=O)c(-c3ccc4c(c3)OCCO4)coc2c1 [compound 104],64,128,
CC1(C)C=Cc2c(c3c(c4c2OCC(c2ccc(O)cc2)C4=O)OC(C)(C)C=C3)O1 (stereo not shown) [compound 105],128,128,
O=c1c(-c2ccc3c(c2)OCCO3)coc2cc(O)cc(O)c12 [compound 106],,,"MIC (mg/L) Mu50 (S. aureus Mu50): 64 mg/L; MIC (mg/L) FDA209P ([1]; Example 1, Tables 1 to 10): 64 mg/L"
O=c1c(-c2ccc3c(c2)OCCCO3)coc2cc(O)cc(O)c12 [compound 107],128,128,

Structure (SMILES),MIC (S. aureus Mu50; [2]) [mg/L],"MIC [1, 4] [mg/L]",also measured
COc1ccc(-c2coc3cc(O)cc(OC)c3c2=O)cc1OC [compound 108],128,128,
CC(=O)Oc1cc(OC(C)=O)c2c(=O)c(-c3ccc4c(c3)OCCCO4)c(C)oc2c1 [compound 109],128,128,
COc1ccc(-c2coc3cc(OC4OC(CO)C(O)C(O)C4O)cc(O)c3c2=O)cc1 (stereo not shown) [compound 110],,,"MIC (mg/L) Mu50 (S. aureus Mu50): 128 mg/L; MIC (mg/L) FDA209P ([1]; Example 1, Tables 1 to 10): 128 mg/L"
COc1cc(OC)c2c(=O)c(-c3ccc(OC)c(OC)c3)coc2c1 [compound 111],128,> 128,
COc1cc(O)c2c(=O)c(-c3ccc(O)cc3)coc2c1 [compound 112],> 128,> 128,
O=c1c(-c2ccc(O)cc2)coc2cc(O)cc(O)c12 [compound 113],128,128,
CCOC(=O)c1oc2cc(O)cc(O)c2c(=O)c1-c1ccc(OC)c(OC)c1 [compound 114],> 128,> 128,
COc1ccc(-c2coc3cc(O)cc(O)c3c2=O)cc1 [compound 116],128,128,
COc1ccc(-c2coc3cc(O)cc(O)c3c2=O)cc1OC [compound 117],> 128,> 128,
COc1ccc(-c2c(C(F)(F)F)oc3cc(O)cc(O)c3c2=O)cc1OC [compound 118],64,128,
COc1ccc(-c2c(C)oc3cc(OC(C)=O)cc(OC(C)=O)c3c2=O)cc1 [compound 119],> 128,> 128,
O=c1c(-c2ccc(O[C@@H]3O[C@H](CO)[C@@H](O)[C@H](O)[C@H]3O)cc2)coc2cc(O)cc(O)c12 [compound 120],,,"MIC (mg/L) Mu50 (S. aureus Mu50): >128 mg/L; MIC (mg/L) FDA209P ([1]; Example 1, Tables 1 to 10): >128 mg/L"
COc1cc(OC)c2c(=O)c(-c3ccc(O)cc3)coc2c1 [compound 121],> 128,> 128,
CC1(CO)C=Cc2c(cc3occ(-c4ccc(O)cc4)c(=O)c3c2O)O1 (stereo not shown) [compound 122],> 128,> 128,
"O=C1CC(c2ccc(O)cc2)Oc2ccccc21 (stereo not shown) [compound 123, 4′-Hydroxyflavanone]",128,128,
"O=C1CC(c2cccc(O)c2)Oc2ccccc21 (stereo not shown) [compound 124, 3′-Hydroxyflavanone]",128,128,
COc1ccc(C2CC(=O)c3c(O)cc(O)cc3O2)cc1O (stereo not shown) [compound 125],> 128,128,
O=C1CC(c2ccccc2)Oc2ccccc21 (stereo not shown) [compound 126],128,128,
"O=C1CC(c2ccc(O)cc2)Oc2cc(O)cc(O)c21 (stereo not shown) [compound 128, 4′,5,7-Trihydroxyflavanone]",128,128,
COc1cc(-c2[o+]c3cc(O)cc(O)c3cc2O)cc(OC)c1O [compound 130],,,"MIC (mg/L) Mu50 (S. aureus Mu50): 128 mg/L; MIC (mg/L) FDA209P ([1]; Example 1, Tables 1 to 10): 128 mg/L"
COc1cc(-c2[o+]c3cc(O)cc(O)c3cc2O)cc(O)c1O [compound 131],,,"MIC (mg/L) Mu50 (S. aureus Mu50): 128 mg/L; MIC (mg/L) FDA209P ([1]; Example 1, Tables 1 to 10): 128 mg/L"
"O.Oc1cc(O)c2c(c1)OC(c1ccc(O)c(O)c1)C(O)C2 (stereo not shown) [compound 133, 3,3′,4′,5,7-Flavanpentol Hydrate]",,,"MIC (mg/L) Mu50 (S. aureus Mu50; Hydrate): >128 mg/L; MIC (mg/L) FDA209P ([1]; Example 1, Tables 1 to 10): 128 mg/L"
